According to the supplement of paper PMC10307832:

Columns and labels:
Test in all cases: relative viability (nuclei count vs DMSO), 5 days (fraction); higher = more cells survive
[1] = compound: COC1=CC=C(C=C1)CN2C=CC3=C2C=C(C=C3)C(=O)NO
Summary of the method: (§1)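 Viability was defined as treated-well nuclei divided by vehicle-well nuclei, with the median taken over replicate plates. Cells from lung cancer lines sat overnight at 37 °C in 1536-well plates, received five √10-spaced library-drug doses by pinning on vehicle-anchored plates, and grew 5 days without medium change before one-step fixation, permeabilisation and Hoechst staining, 4× imaging and MetaXpress nuclear counts. Only plates with control CV under 25% and at least one doubling were kept.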

Veliparib = compound: C[C@]1(c2nc3c(C(N)=O)cccc3[nH]2)CCCN1 [Veliparib]
Summary of the method: as §1

[2] = compound: COC1=CC=C(C=C1)CN2C=CC3=C2C=C(C=C3)C(=O)NO + CCNC(=O)c1noc(-c2cc(C(C)C)c(O)cc2O)c1-c1ccc(CN2CCOCC2)cc1 [Luminespib] (partner 0.01 µM)
Summary of the method: (§2)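 For relative viability, nuclei counts in treated wells were divided by those in vehicle wells. Lung cancer cell lines had been pin-tool dosed in 1536-well plates the day after seeding and cultured for 5 days, then fixed and stained in one step (final 0.05% Triton X-100, 1% formaldehyde, 1 ug/ml Hoechst) and imaged at 4×. Doses were one drug alone or a fixed anchor-drug dose plus five library-drug doses (not always all listed) in √10 steps, and values are duplicate-plate medians.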

[3] = compound: COC1=CC=C(C=C1)CN2C=CC3=C2C=C(C=C3)C(=O)NO + COc1cc2c(Oc3ccc(NC(=O)C4(C(=O)Nc5ccc(F)cc5)CC4)cc3F)ccnc2cc1OCCCN1CCOCC1 [Foretinib] (partner 0.25 µM)
Summary of the method: as §2

[4] = compound: COC1=CC=C(C=C1)CN2C=CC3=C2C=C(C=C3)C(=O)NO + COc1cccc2cc(-c3nc([C@H]4CC[C@H](C(=O)O)CC4)n4ncnc(N)c34)[nH]c12 [OSI-027] (partner 0.5 µM)
Summary of the method: as §2

[5] = compound: COC1=CC=C(C=C1)CN2C=CC3=C2C=C(C=C3)C(=O)NO + Cc1cc(Nc2cc(N3CCN(C)CC3)nc(Sc3ccc(NC(=O)C4CC4)cc3)n2)n[nH]1 [Tozasertib] (partner 0.1 µM)
Summary of the method: as §2

[6] = compound: COC1=CC=C(C=C1)CN2C=CC3=C2C=C(C=C3)C(=O)NO + Cc1nc(Nc2ncc(C(=O)Nc3c(C)cccc3Cl)s2)cc(N2CCN(CCO)CC2)n1 [Dasatinib] (partner 0.075 µM)
Summary of the method: as §2

[7] = compound: COC1=CC=C(C=C1)CN2C=CC3=C2C=C(C=C3)C(=O)NO + N=C(N)NC(=N)NCCc1ccccc1 [Phenformin] (partner 250 µM)
Summary of the method: as §2

Veliparib + Luminespib = compound: C[C@]1(c2nc3c(C(N)=O)cccc3[nH]2)CCCN1 [Veliparib] + CCNC(=O)c1noc(-c2cc(C(C)C)c(O)cc2O)c1-c1ccc(CN2CCOCC2)cc1 [Luminespib] (partner 0.01 µM)
Summary of the method: as §2

Veliparib + Foretinib = compound: C[C@]1(c2nc3c(C(N)=O)cccc3[nH]2)CCCN1 [Veliparib] + COc1cc2c(Oc3ccc(NC(=O)C4(C(=O)Nc5ccc(F)cc5)CC4)cc3F)ccnc2cc1OCCCN1CCOCC1 [Foretinib] (partner 0.25 µM)
Summary of the method: as §2

Veliparib + OSI-027 = compound: C[C@]1(c2nc3c(C(N)=O)cccc3[nH]2)CCCN1 [Veliparib] + COc1cccc2cc(-c3nc([C@H]4CC[C@H](C(=O)O)CC4)n4ncnc(N)c34)[nH]c12 [OSI-027] (partner 0.5 µM)
Summary of the method: as §2

Veliparib + Tozasertib = compound: C[C@]1(c2nc3c(C(N)=O)cccc3[nH]2)CCCN1 [Veliparib] + Cc1cc(Nc2cc(N3CCN(C)CC3)nc(Sc3ccc(NC(=O)C4CC4)cc3)n2)n[nH]1 [Tozasertib] (partner 0.1 µM)
Summary of the method: as §2

Veliparib + Dasatinib = compound: C[C@]1(c2nc3c(C(N)=O)cccc3[nH]2)CCCN1 [Veliparib] + Cc1nc(Nc2ncc(C(=O)Nc3c(C)cccc3Cl)s2)cc(N2CCN(CCO)CC2)n1 [Dasatinib] (partner 0.075 µM)
Summary of the method: as §2

Veliparib + Phenformin = compound: C[C@]1(c2nc3c(C(N)=O)cccc3[nH]2)CCCN1 [Veliparib] + N=C(N)NC(=N)NCCc1ccccc1 [Phenformin] (partner 250 µM)
Summary of the method: as §2

NCI-H1623
relative viability ([1]; 0.08 µM): 0.812 | relative viability ([1]; 0.253 µM): 0.975 | relative viability ([1]; 0.8 µM): 0.999 | relative viability ([1]; 2.53 µM): 0.982 | relative viability ([1]; 8 µM): 0.897 | relative viability (Veliparib; 0.02 µM): 0.762 | relative viability (Veliparib; 0.06325 µM): 0.883 | relative viability (Veliparib; 0.2 µM): 0.959 | relative viability (Veliparib; 0.6325 µM): 1.01 | relative viability (Veliparib; 2 µM): 0.984 | relative viability ([2]; first compound 0.08 µM): 0.578 | relative viability ([2]; first compound 0.253 µM): 0.761 | relative viability ([2]; first compound 0.8 µM): 0.576 | relative viability ([2]; first compound 2.53 µM): 0.471 | relative viability ([2]; first compound 8 µM): 0.392 | relative viability ([3]; first compound 0.08 µM): 0.649 | relative viability ([3]; first compound 0.253 µM): 0.82 | relative viability ([3]; first compound 0.8 µM): 0.866 | relative viability ([3]; first compound 2.53 µM): 0.859 | relative viability ([3]; first compound 8 µM): 0.766 | relative viability ([4]; first compound 0.08 µM): 0.435 | relative viability ([4]; first compound 0.253 µM): 0.727 | relative viability ([4]; first compound 0.8 µM): 0.468 | relative viability ([4]; first compound 2.53 µM): 0.43 | relative viability ([4]; first compound 8 µM): 0.376 | relative viability ([5]; first compound 0.08 µM): 0.407 | relative viability ([5]; first compound 0.253 µM): 0.411 | relative viability ([5]; first compound 0.8 µM): 0.421 | relative viability ([5]; first compound 2.53 µM): 0.42 | relative viability ([5]; first compound 8 µM): 0.436 | relative viability ([6]; first compound 0.08 µM): 0.389 | relative viability ([6]; first compound 0.253 µM): 0.487 | relative viability ([6]; first compound 0.8 µM): 0.517 | relative viability ([6]; first compound 2.53 µM): 0.525 | relative viability ([6]; first compound 8 µM): 0.418 | relative viability ([7]; first compound 0.08 µM): 0.396 | relative viability ([7]; first compound 0.253 µM): 0.581 | relative viability ([7]; first compound 0.8 µM): 0.542 | relative viability ([7]; first compound 2.53 µM): 0.616 | relative viability ([7]; first compound 8 µM): 0.513 | relative viability (Veliparib + Luminespib; first compound 0.06325 µM): 0.467 | relative viability (Veliparib + Luminespib; first compound 0.2 µM): 0.596 | relative viability (Veliparib + Luminespib; first compound 0.6325 µM): 0.434 | relative viability (Veliparib + Luminespib; first compound 2 µM): 0.409 | relative viability (Veliparib + Foretinib; first compound 0.02 µM): 0.639 | relative viability (Veliparib + Foretinib; first compound 0.06325 µM): 0.796 | relative viability (Veliparib + Foretinib; first compound 0.2 µM): 0.855 | relative viability (Veliparib + Foretinib; first compound 0.6325 µM): 0.811 | relative viability (Veliparib + Foretinib; first compound 2 µM): 0.716 | relative viability (Veliparib + OSI-027; first compound 0.02 µM): 0.384 | relative viability (Veliparib + OSI-027; first compound 0.06325 µM): 0.362 | relative viability (Veliparib + OSI-027; first compound 0.2 µM): 0.425 | relative viability (Veliparib + OSI-027; first compound 0.6325 µM): 0.42 | relative viability (Veliparib + OSI-027; first compound 2 µM): 0.431 | relative viability (Veliparib + Tozasertib; first compound 0.06325 µM): 0.439 | relative viability (Veliparib + Tozasertib; first compound 0.2 µM): 0.428 | relative viability (Veliparib + Tozasertib; first compound 0.6325 µM): 0.461 | relative viability (Veliparib + Tozasertib; first compound 2 µM): 0.444 | relative viability (Veliparib + Dasatinib; first compound 0.06325 µM): 0.458 | relative viability (Veliparib + Dasatinib; first compound 0.2 µM): 0.598 | relative viability (Veliparib + Dasatinib; first compound 0.6325 µM): 0.524 | relative viability (Veliparib + Dasatinib; first compound 2 µM): 0.462 | relative viability (Veliparib + Phenformin; first compound 0.06325 µM): 0.514 | relative viability (Veliparib + Phenformin; first compound 0.2 µM): 0.605 | relative viability (Veliparib + Phenformin; first compound 0.6325 µM): 0.583 | relative viability (Veliparib + Phenformin; first compound 2 µM): 0.545
